The NIST ThermoML archive (doi:10.1016/j.jct.2016.10.023)
Several values for one entry are separate records, joined by “and”; a condition that tells them apart may be missing. Identical values can stand only once.

Test: xn = mol fraction of the nth substance listed
Settings: Constant-volume piezometry

CCCCC [pentane] + CCCO
Settings	mass density
473.15 K, 3570 kPa, Gas, x1 = 0.9	221.23 kg/m3
473.15 K, 3581 kPa, Fluid (supercritical or subcritical phases), x1 = 0.9	202.87 kg/m3
473.15 K, 3589 kPa, Fluid (supercritical or subcritical phases), x1 = 0.9	221.23 kg/m3
473.15 K, 3592 kPa, Gas, x1 = 0.8	140.64 kg/m3
473.15 K, 3596 kPa, Fluid (supercritical or subcritical phases), x1 = 0.9	233.64 kg/m3 and 237.11 kg/m3
473.15 K, 3598 kPa, Fluid (supercritical or subcritical phases), x1 = 0.9	241.52 kg/m3
473.15 K, 3600 kPa, Fluid (supercritical or subcritical phases), x1 = 0.9	244.84 kg/m3
473.15 K, 3614 kPa, Fluid (supercritical or subcritical phases), x1 = 0.9	282.71 kg/m3
473.15 K, 3634 kPa, Fluid (supercritical or subcritical phases), x1 = 0.9	302.44 kg/m3
473.15 K, 3679 kPa, Fluid (supercritical or subcritical phases), x1 = 0.9	313.12 kg/m3
473.15 K, 3689 kPa, Fluid (supercritical or subcritical phases), x1 = 0.8	316.17 kg/m3
473.15 K, 3767 kPa, Liquid, x1 = 0.8	311.76 kg/m3
473.15 K, 3769 kPa, Liquid, x1 = 0.8	312.18 kg/m3
473.15 K, 3862 kPa, Liquid, x1 = 0.8	334.71 kg/m3
473.15 K, 3867 kPa, Fluid (supercritical or subcritical phases), x1 = 0.9	334.89 kg/m3
473.15 K, 4019 kPa, Liquid, x1 = 0.8	346.27 kg/m3
473.15 K, 4251 kPa, Fluid (supercritical or subcritical phases), x1 = 0.9	355.05 kg/m3
473.15 K, 4349 kPa, Liquid, x1 = 0.5	442.18 kg/m3
473.15 K, 4439 kPa, Liquid, x1 = 0.8	362.89 kg/m3
473.15 K, 5156 kPa, Liquid, x1 = 0.5	452.53 kg/m3
473.15 K, 5785 kPa, Liquid, x1 = 0.5	459.62 kg/m3
473.15 K, 6747 kPa, Fluid (supercritical or subcritical phases), x1 = 0.9	408.4 kg/m3
473.15 K, 6942 kPa, Liquid, x1 = 0.5	469.49 kg/m3
473.15 K, 7120 kPa, Liquid, x1 = 0.8	419.36 kg/m3
473.15 K, 7219 kPa, Liquid, x1 = 0.2	548.71 kg/m3
473.15 K, 13549 kPa, Liquid, x1 = 0.5	508.06 kg/m3
473.15 K, 13806 kPa, Liquid, x1 = 0.8	468.05 kg/m3
473.15 K, 16233 kPa, Liquid, x1 = 0.5	520.92 kg/m3
473.15 K, 16852 kPa, Liquid, x1 = 0.2	583.19 kg/m3
473.15 K, 20923 kPa, Liquid, x1 = 0.8	497.59 kg/m3
473.15 K, 22686 kPa, Liquid, x1 = 0.2	596.85 kg/m3
473.15 K, 24900 kPa, Liquid, x1 = 0.5	549.88 kg/m3
473.15 K, 30448 kPa, Liquid, x1 = 0.8	522.21 kg/m3
473.15 K, 32094 kPa, Liquid, x1 = 0.2	616.32 kg/m3
473.15 K, 38268 kPa, Liquid, x1 = 0.5	576.1 kg/m3
474.15 K, 3452 kPa, Liquid, x1 = 0.5	418.33 kg/m3
474.15 K, 3457 kPa, Liquid, x1 = 0.5	418.33 kg/m3
474.15 K, 3855 kPa, Liquid, x1 = 0.8	311.75 kg/m3
474.15 K, 3858 kPa, Liquid, x1 = 0.8	312.16 kg/m3
475.15 K, 3641 kPa, Liquid, x1 = 0.5	418.31 kg/m3
475.15 K, 3789 kPa, Fluid (supercritical or subcritical phases), x1 = 0.9	302.41 kg/m3
475.15 K, 3944 kPa, Liquid, x1 = 0.8	312.15 kg/m3
477.15 K, 3017 kPa, Liquid, x1 = 0.2	510.96 kg/m3
478.15 K, 3181 kPa, Gas, x1 = 0.5	89.1 kg/m3
478.15 K, 3700 kPa, Liquid, x1 = 0.5	399.08 kg/m3
478.15 K, 3850 kPa, Fluid (supercritical or subcritical phases), x1 = 0.8	214.32 kg/m3
478.15 K, 3857 kPa, Fluid (supercritical or subcritical phases), x1 = 0.8	220.1 kg/m3
478.15 K, 3944 kPa, Fluid (supercritical or subcritical phases), x1 = 0.8	273.15 kg/m3
480.15 K, 3218 kPa, Gas, x1 = 0.5	89.09 kg/m3
480.15 K, 3965 kPa, Fluid (supercritical or subcritical phases), x1 = 0.8	220.08 kg/m3
480.15 K, 4198 kPa, Fluid (supercritical or subcritical phases), x1 = 0.9	302.34 kg/m3
482.15 K, 3886 kPa, Liquid, x1 = 0.5	384.8 kg/m3
483.15 K, 867 kPa, Gas, x1 = 0.5	15.55 kg/m3
483.15 K, 1195 kPa, Gas, x1 = 0.8	22.57 kg/m3
483.15 K, 1378 kPa, Gas, x1 = 0.2	24.98 kg/m3
483.15 K, 1547 kPa, Gas, x1 = 0.5	30.04 kg/m3
483.15 K, 1753 kPa, Gas, x1 = 0.8	36.76 kg/m3
483.15 K, 2012 kPa, Gas, x1 = 0.5	40.56 kg/m3
483.15 K, 2335 kPa, Gas, x1 = 0.5	51.19 kg/m3
483.15 K, 2505 kPa, Gas, x1 = 0.8	58.52 kg/m3
483.15 K, 2571 kPa, Gas, x1 = 0.2	53.11 kg/m3
483.15 K, 2845 kPa, Gas, x1 = 0.5	67.65 kg/m3
483.15 K, 2913 kPa, Gas, x1 = 0.8	73.93 kg/m3
483.15 K, 2963 kPa, Gas, x1 = 0.5	72.74 kg/m3
483.15 K, 3039 kPa, Gas, x1 = 0.9	83.54 kg/m3

Liquid
Settings	mass density [kg/m3]
473.15 K, x1 = 0.5	418.35
474.15 K, x1 = 0.8	299.93
475.25 K, x1 = 0.8	289.08
475.65 K, x1 = 0.8	273.18
475.95 K, x1 = 0.8	259.17
476.15 K, x1 = 0.8	245.91
476.35 K, x1 = 0.2	510.98
476.45 K, x1 = 0.5	399.12
482.15 K, x1 = 0.5	373.68
